Laboratory results published in patent US20250034510A1, “SYSTEMS, DEVICES, AND METHODS FOR BIOLOGICAL MATERIAL RESTORATION AND/OR CRYOPRESERVATION” (Oregon State University, priority 2023, published 2025).
Several values for one entry are separate records, joined by “and”; a condition that tells them apart may be missing. Equal values may be shown once.

What was measured:
[1] = DMSO penetration in IVDs tracked by CT; type: in vitro ADME, bovine; details: for DMSO saturation level: free swelling IVD without compression, 10% DMSO
Description: In this example, the transport of DMSO in free-swelling IVDs was assessed. Three skeletally mature Black Angus bovine IVDs were incubated in 10% DMSO for three days and CT-scanned at 0, 24, 56, and 72 hours. DMSO penetration was tracked using a Toshiba Aquilion 64-slice Computed Tomography (CT) unit provided by the Carlson College of Veterinary Medicine at Oregon State University. Acquisition parameters were set to 120 kVp, 240 FoV, 0.6 pitch, and 250 mA.
Materialize Mimics® 21.0 was used to segment the IVD's soft tissue (AF and NP). A code was developed in MATLAB® 9.9 to perform a Gaussian curve-fitting analysis of the segmented scans, estimating the mean signal intensity (FIG. 12).
The correlation in equation 1 was developed To relate mean signal intensity to penetration %, the mean signal intensity was normalized for the sample of interest (IVDn) to the intensities of both a fresh IVD (IVD0) and a fully-saturated IVD (IVDF*).
The effectiveness of PrimeGrowth™ (n=3) and compression (n=3) in improving the transport of DMSO and decreasing cell CPA exposure time were also assessed. PrimeGrowth™ is designed to clear blood clots in the CEP, improving transport through its pores and channels. Axial compression could enhance the convection transport of fluids in the IVD. IVDs treated with PrimeGrowth™ were incubated in a 30 mL Isolation Medium for one hour and rinsed in an equal volume of Neutralization Medium for two minutes. In a separate protocol, bovine IVDs were compressed in a custom-built bioreactor for four hours under a sine-wave load (0 MPa to 2.5 MPa at 0.1 Hz) and soaked in 10% DMSO. DMSO penetration in IVDs was tracked via CT scans compared to a control group (n=3) soaking in 10% DMSO. CT scans were acquired at 0, 5, 8, 24, and 36 hours.

[2] = system: nucleus pulposus (NP) cells; assay: Cytotoxicity of CPA 1 on NP cells in monolayer culture (LIVE/DEAD assay); type: cell-based, bovine; details: PG as part of CPA 1 (FIG. 13)
Description: In this example, NP cells were isolated following a protocol adapted and modified from Wiseman et al. (Wiseman, M. A., H. L. Birch, M. Akmal, and A. E. Goodship, Spine, 2005, 30:505-11). Two freshly skinned skeletally mature bovine tails were obtained from a local abattoir, disinfected for five minutes in a 1% Betadine solution (RC3955, VWR International, PA), and allowed to dry in a sterile environment for ten minutes. Muscle and fat tissue were removed from each tail, exposing the IVDs. The isolated IVDs were wrapped with a sterile gauze soaked in 0.9% sodium chloride (IC102892.5, VWR International, PA) and 55 mM sodium citrate (BDH9288, VWR International, PA) while awaiting dissection.
NP tissue was removed with a scalpel, cut into 4 mm^2 pieces, and digested in a humidified cell incubator at 37° C. and 5% CO2. […]
In this example, NP cells were cultured in 6 well-plates to elucidate the cytotoxicity of CPA 1 composed of 80% DMEM (D6046, Sigma), 10% DMSO (IC0219605590, VWR International, PA), and % 10 propylene glycol (PG) (P4347, Sigma, MO). […] Cells were stained with a fluorescent LIVE/DEAD™ assay (L3224, ThermoFisher, MA) and scanned using Keyence BZ-X700 fluorescence microscope (Oregon State University, OR). […]

Structure (SMILES)	time required for DMSO to fully saturate the disc ([1]; IVD compressed before soaking in 10% DMSO)	time required to reach a 75% level of penetration ([1]; IVD without compression)	time to reach equilibrium with the surrounding solution ([1]; IVD without compression (FIG. 14))	DMSO penetration ([1]; compression then free swelling, in 3 to 4 hours)	decrease of the time required for full penetration by compression (improvement) ([1]; compression vs no compression)	DMSO penetration ([1]; compression, at 3 hours)	DMSO saturation level ([1]; after 24 hours)	DMSO saturation level ([1]; by 72 hours of incubation)	mean DMSO penetration % compared to time 0 (one-way ANOVA, p<0.05) ([1]; free-swelling IVDs, after 24 hours of incubation)	effect on cell viability in a monolayer cell culture [2]
C[S+](C)[O-] [DMSO, dimethylsulfoxide]	3 h	72 h	72 h	about 90%	96% and 95%	97%	50%	75%	significantly different	–
CC(O)CO (stereo not shown) [PG, propylene glycol]	–	–	–	–	–	–	–	–	–	devastating for cell viability
